Where two headings read alike, the source gives them in different places.
Tested on: FD (familial dysautomonia) IKBKAP minigene, exon 20 inclusion, in HEK293T cells
Experiment: Primary splicing assay (FD IKBKAP minigene, Firefly/Renilla luciferase reporter in HEK293T)
Format: cell-based, human
Details: for EC (maximum kinetin efficacy) / Emax: Homo sapiens, HEK-293T; for EC (maximum kinetin efficacy): HEK293T, read-out: ECk (compound concentration at which the maximum kinetin efficacy (200 μM) is reached)
Method: As used herein, the expression “ECk” refers to the compound concentration at which the maximum kinetin efficacy (200 μM) is reached.
Splicing analysis was made possible by using an FD (familial dysautomonia) IKBKAP minigene which contained exon 19 through exon 21, including intervening introns, and also the T→C Thymine to cytosine transition located 6 base-pairs from the end of IKBKAP exon 20; See SEQ ID NO:3 for the complete sequence of plasmid pcDNA3.1/V5HisTOPO with Renilla-Familial Dysautonomia minigene-Firefly. Firefly luciferase (SEQ ID NO:14) was utilized as a splicing reporter, located downstream of exon 21, and Renilla luciferase (SEQ ID NO:13) was used as a control, located upstream of exon 19. The sequence of exon 19 is presented as SEQ ID NO:7; the Intron between Exon 19 and Exon 20 is SEQ ID NO:8; exon 20 is SEQ ID NO:9; the intron between […]; exon 21 is SEQ ID NO: 11, and the spliced sequence of exons 19-20-21 is SEQ ID NO:12. HEK293T cells were plated in a 6-well plate 24 hours prior to transfection. Transfection was carried out using a mixture of Opti-MEM (GIBCO ref. 31985), IKBKAP minigene, and Fugene HID (PROMEGA ref. E2311), incubated in DMEM media containing HEK293T cells at 37° C. The ratio of Opti-MEM, minigene, and Fugene was kept at approximately 9:1.5:1, with a total volume of 150 μL of transfection mixture applied per well.
After 4 hours of transfection, the cells were then plated in a 96-well plate coated with poly-L-lysine (SIGMA cat.P4707) for treatment scheduled 24 hours later. […] After 24 hours of treatment, cells were washed in the poly-L-lysine coated 96-well plate using PBS and subsequently harvested using Passive Lysis Buffer (Promega cat.E196). Cell lysate was transferred to a black and white 96-well plate and analyzed for splicing correction using a Glomax luminometer (PROMEGA GloMax® 96 Microplate Luminometer w/Dual Injectors cat.E6521) and Promega Dual Glo Firefly and Stop and Glo Renilla reagents (Cat.E196). The compound's ability to correct splicing and promote exon 20 inclusion was marked by an increase in Firefly signal. Renilla signal, which is independent of exon 20 inclusion, was used to correct for cell number. Using the ratio of Firefly to Renilla signal, a dose response curve was produced, which referenced kinetin and DMSO Firefly/Renilla ratios as positive and negative controls, respectively.

[1] = Firefly/Renilla ratio, 24 hours of treatment
[2] = max efficacy in Primary Assay, Firefly/Renilla ratio, kinetin and DMSO as positive and negative controls, 24 hours of treatment, read-out: Emax (%)

## CNC(=O)c1nc2c(NCc3ccncn3)nc(Cl)nc2[nH]1 [(258)]
[1]
  EC (maximum kinetin efficacy): 15.8 µM
[2]
  Emax: 165%

## Clc1nc(NCc2ccco2)c2ccsc2n1 [(56)]
[1]
  EC (maximum kinetin efficacy): 8.23 µM
[2]
  Emax: 152%

## CC(F)(F)COc1nc2c(NCc3ccco3)nc(Cl)nc2[nH]1 [(390)]
[1]
  EC (maximum kinetin efficacy): 0.74 µM
[2]
  Emax: 201%

## Clc1nc(NCc2nccs2)c2nc(C3CCC3)[nH]c2n1 [(240)]
[1]
  EC (maximum kinetin efficacy): 18.2 µM
[2]
  Emax: 124%

## Clc1nc(NCc2nccs2)c2nc(OC3CCC3)[nH]c2n1 [(289)]
[1]
  EC (maximum kinetin efficacy): 0.87 µM
[2]
  Emax: 128%

## Clc1nc(NCc2ccno2)c2nc[nH]c2n1 [(175)]
[2]
  Emax: 29%

## Cc1cc(CNc2ncnc3[nH]cnc23)on1 [(8)]
[2]
  Emax: 25%

## Cc1c[nH]c2nc(Cl)nc(NCc3ccncc3)c12 [(120)]
[1]
  EC (maximum kinetin efficacy): 2.75 µM
[2]
  Emax: 166%

## Cn1cnc2nc(Cl)nc(NCc3ccncc3)c21 [(313)]
[1]
  EC (maximum kinetin efficacy): 7.48 µM
[2]
  Emax: 102%

## CC(C)(C)OC(=O)N1CC(COc2nc3c(NCc4nccs4)nc(Cl)nc3[nH]2)C1 [(471)]
[1]
  EC (maximum kinetin efficacy): 1.63 µM
[2]
  Emax: 149%

## Clc1nc(NCc2ccncn2)c2nc(OCC3CCC3)[nH]c2n1 [(326)]
[1]
  EC (maximum kinetin efficacy): 0.07 µM
[2]
  Emax: 287%

## Clc1nc(NCc2ccco2)c2ncsc2n1 [(253)]
[1]
  EC (maximum kinetin efficacy): 11.8 µM
[2]
  Emax: 187%

## COC(=O)COc1nc2c(NCc3nccs3)nc(Cl)nc2[nH]1 [(504)]
[2]
  Emax: 80%

## N#Cc1cc2c(NCc3ccco3)nc(Cl)nc2[nH]1 [(223)]
[2]
  Emax: 95%

## Clc1nc(NCc2ccncc2)c2nc(OC3COC3)[nH]c2n1 [(272)]
[1]
  EC (maximum kinetin efficacy): 2.6 µM
[2]
  Emax: 155%

## Cc1cccc(CCNc2ncnc3[nH]cnc23)c1 [(25)]
[1]
  EC (maximum kinetin efficacy): 9.35 µM

## Clc1nc(NCc2cncs2)c2nc[nH]c2n1 [(378)]
[2]
  Emax: 31.8%

## OCCn1cc(F)c2c(NCc3ccco3)nc(Cl)nc21 [(111)]
Max efficacy, Firefly only, footnote c: Renilla interference/Firefly only, read-out: Emax (%) Firefly only
  Emax: 191%
Renilla interference/Firefly only (footnote c)
  ECk, Firefly only: 9.3 µM⁻¹

## Clc1nc(NCc2ccncc2)c2nc(OC3CCC3)[nH]c2n1 [(294)]
[1]
  EC (maximum kinetin efficacy): 0.44 µM
[2]
  Emax: 183%

## Clc1nc(NCc2nccs2)c2nc(OCC3CCC3)[nH]c2n1 [(324)]
[1]
  EC (maximum kinetin efficacy): 0.16 µM
[2]
  Emax: 226%

## Cc1c[nH]c2nc(Cl)nc(NCc3ccco3)c12 [(84)]
Max efficacy, value marked (RT-PCR), footnote a: Firefly inhibitor, read-out: Emax (%) (RT-PCR)
  Emax: 251%
Determined by RT-PCR, footnote a Firefly inhibitor, footnote b Renilla interference
  ECk (RT-PCR): 1 to 10 µM

## Clc1nc(NCc2ccco2)c2ncn(Cc3ccncc3)c2n1 [(72)]
[2]
  Emax: 39%

## c1coc(CNc2nc(C3CC3)nc3[nH]cnc23)c1 [(65)]
[2]
  Emax: 32%

## Cc1nc2c(NCc3ccco3)nc(Cl)nc2[nH]1 [(90)]
[1]
  EC (maximum kinetin efficacy): 11.8 µM
[2]
  Emax: 159%

## Clc1nc(NCc2ncccn2)c2cc[nH]c2n1 [(361)]
[2]
  Emax: 9.8%

## COc1ccc(C(=O)Nc2ncnc3[nH]cnc23)cc1 [(441)]
[2]
  Emax: 42.8%

## Clc1nc(NCc2ccco2)c2nc(Cc3ccncc3)[nH]c2n1 [(99)]
[2]
  Emax: 47%

## CC#CCOc1nc2c(NCc3nccs3)nc(Cl)nc2[nH]1 [(479)]
[1]
  EC (maximum kinetin efficacy): 3.23 µM
[2]
  Emax: 144%

## FC(F)(F)c1cccc(Nc2ncnc3[nH]cnc23)c1 [(13)]
[2]
  Emax: 16%

## Cc1[nH]c2nc(Cl)nc(NCc3ccncc3)c2c1F [(201)]
[2]
  Emax: 27%

## COCCOc1nc2c(NCc3nccs3)nc(Cl)nc2[nH]1 [(328)]
[1]
  EC (maximum kinetin efficacy): 1.79 µM
[2]
  Emax: 184%

## Clc1nc(NCc2ccco2)c2c(-c3ccccc3)c[nH]c2n1 [(86)]
[2]
  Emax: 29%

## COc1cc(CNc2nc(Cl)nc3[nH]ccc23)ccn1 [(237)]
[2]
  Emax: 21%

## Clc1nc(NCc2ccncc2)c2ncsc2n1 [(256)]
[1]
  EC (maximum kinetin efficacy): 17.4 µM
[2]
  Emax: 129%

## Fc1nc(NCc2ccco2)c2nc[nH]c2n1 [(58)]
[1]
  EC (maximum kinetin efficacy): 17.9 µM
[2]
  Emax: 155%

## Clc1nc(NCc2nccs2)c2nc(OCc3ccccn3)[nH]c2n1 [(500)]
[1]
  EC (maximum kinetin efficacy): 3 µM
[2]
  Emax: 141%

## Clc1nc(NCc2ccncc2)c2nc(C3CC3)[nH]c2n1 [(141)]
[2]
  Emax: 103%

## CC(C)COc1nc2c(NCc3nccs3)nc(Cl)nc2[nH]1 [(491)]
[1]
  EC (maximum kinetin efficacy): 0.48 µM
[2]
  Emax: 155%
